Source: PubChem BioAssay (NCI)
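Compound exposure: 48 hours, 5 concentrations, 96-well plates. TGI denotes the concentration required for complete inhibition of growth.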

How the values were obtained:
Test in all cases: NCI-60 cell line screen, 48 h
[1] = test system: MDA-MB-231 breast
[2] = test system: K-562 leukemia
[3] = test system: CAKI-1 renal
[4] = test system: HOP-62 NSCLC
[5] = test system: 786-0 renal
[6] = test system: SW-620 colon
[7] = test system: SNB-75 CNS
[8] = test system: IGROV1 ovarian
[9] = test system: NCI-H460 lung
[10] = test system: OVCAR-3 ovarian
[11] = test system: RPMI-8226 leukemia
[12] = test system: HS 578T breast
[13] = test system: SNB-19 CNS
[14] = test system: NCI/ADR-RES ovarian
[15] = test system: M14 melanoma
[16] = test system: HCT-116 colon
[17] = test system: NCI-H226 lung
[18] = test system: HT29 colon
[19] = test system: COLO 205 colon
[20] = test system: NCI-H23 lung
[21] = test system: OVCAR-5 ovarian
[22] = test system: HCT-15 colon
[23] = test system: NCI-H522 lung
[24] = test system: CCRF-CEM leukemia
[25] = test system: U251 CNS
[26] = test system: HOP-92 NSCLC
[27] = test system: RXF 393 renal
[28] = test system: ACHN renal
[29] = test system: PC-3 prostate
[30] = test system: LOX IMVI melanoma
[31] = test system: UO-31 renal
[32] = test system: A549 NSCLC
[33] = test system: A498 renal
[34] = test system: HL-60(TB) leukemia
[35] = test system: SF-295 CNS
[36] = test system: MDA-N
[37] = test system: OVCAR-8 ovarian
[38] = test system: SK-MEL-5 melanoma
[39] = test system: OVCAR-4 ovarian
[40] = test system: T-47D breast
[41] = test system: SN12C renal
[42] = test system: SF-539 CNS
[43] = test system: UACC-62 melanoma
[44] = test system: SF-268 CNS
[45] = test system: MOLT-4 leukemia
[46] = test system: UACC-257 melanoma
[47] = test system: DU-145 prostate
[48] = test system: MALME-3M melanoma
[49] = test system: HCC-2998 colon
[50] = test system: MDA-MB-435
[51] = test system: SK-MEL-28 melanoma
[52] = test system: EKVX NSCLC
[53] = test system: SK-OV-3 ovarian
[54] = test system: SK-MEL-2 melanoma
[55] = test system: SR leukemia
[56] = test system: MCF7 breast
[57] = test system: KM12 colon
[58] = test system: TK-10 renal

Measured: TGI

Cc1cc2ccccc2c[n+]1CC(=O)CC([O-])(C(F)(F)F)C(F)(F)F
not listed: [56] | [57] | [58]
> 100 µM: all other assays above

CC(C)n1c(=O)c2nn3c(=O)n(C(C)C)c(=O)c3nn2c1=O
not listed: [2] | [7] | [11] | [23] | [25] | [31]
> 100 µM: all other assays above
